From PubChem BioAssay (NCI)
Where “and” joins values, the source holds several entries; their conditions need not be identical. Equal entries are not always repeated.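 A five-concentration, 48-hour dose response in 96-well plates underlies each endpoint, interpolated linearly between surrounding concentrations. GI50 marks 50% less growth. Definition used: TGI = concentration required for complete inhibition of growth.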

Tests used:
Test in all cases: DTP human tumour cell line panel, 48 h
OVCAR-8 ovarian = system: OVCAR-8 ovarian
COLO 205 colon = system: COLO 205 colon
SF-539 CNS = system: SF-539 CNS
HS 578T breast = system: HS 578T breast
SF-268 CNS = system: SF-268 CNS
U251 CNS = system: U251 CNS
M14 melanoma = system: M14 melanoma
OVCAR-4 ovarian = system: OVCAR-4 ovarian
NCI-H226 lung = system: NCI-H226 lung
MALME-3M melanoma = system: MALME-3M melanoma

Row | SMILES | GI50 (OVCAR-8 ovarian) | TGI (OVCAR-8 ovarian) | GI50 (COLO 205 colon) | TGI (COLO 205 colon) | GI50 (SF-539 CNS) | TGI (SF-539 CNS) | GI50 (HS 578T breast) | TGI (HS 578T breast) | GI50 (SF-268 CNS) | TGI (SF-268 CNS) | GI50 (U251 CNS) | TGI (U251 CNS) | GI50 (M14 melanoma) | TGI (M14 melanoma) | GI50 (OVCAR-4 ovarian) | TGI (OVCAR-4 ovarian) | GI50 (NCI-H226 lung) | TGI (NCI-H226 lung) | GI50 (MALME-3M melanoma) | TGI (MALME-3M melanoma)
1 | COc1ccc(Oc2cc(NCCC(F)(F)F)c3ncc(-c4ccc(C(=O)NC5CC5)c(C)c4)n3n2)c(F)c1F | 73.8 nM | 26.9 µM | < 21.5 nM | 50.7 µM | 758 nM | 21.9 µM | 1000 nM | 50.6 µM | 4.98 µM | > 100 µM | 597 nM | 57.8 µM | 339 nM | > 46.1 µM | 3.85 µM | > 87.2 µM | 7.34 µM | 68.8 µM | 2080 nM | 54.8 µM
2 | COc1ccc2nccc(/C=C/c3ccnc4ccc(OC)cc34)c2c1 | > 100000 nM | > 100 µM | > 100000 nM | > 100 µM | > 93100 nM | > 100 µM | 23600 nM | 90.1 µM | > 91.6 µM | > 100 µM | > 100000 nM | > 100 µM | > 42000 nM | > 56 µM | 21.7 µM | > 52.5 µM | > 100 µM | > 100 µM | 22100 nM | 48.1 µM
3 | CNCCCn1c2c(c3ccc(F)cc3c1=O)C(=O)c1cc(OC)cnc1-2 | 193 nM | 1.12 µM | 72.2 nM | 1.14 µM | 368 nM | 1.36 µM | 2240 nM | 16.2 µM | 0.379 µM | 3.55 µM | 110 nM | 0.46 µM | 308 nM | 1.63 µM | 0.421 µM | 10.5 µM | 0.163 µM | 0.356 µM | 318 nM | 1.55 µM
4 | Clc1ccc(N2CCC(N3CCCC3)CC2)cc1-c1nc2ccccc2[nH]1 | 22500 nM | 60.6 µM | 16000 nM | 30.8 µM | 17000 nM | 32.1 µM | 16800 nM | 51.7 µM | 15.4 µM | 31.8 µM | 16700 nM | 35.1 µM | 16700 nM | 31.8 µM | 27.1 µM | > 91.4 µM | 18.4 µM | 43.8 µM | 17400 nM | 33.6 µM
5 | N#C/C(=C\c1cccc2cnccc12)N1N=NC2C=CC=CC21 (stereo not given) | 3320 nM | > 100 µM | 3480 nM | > 100 µM | 2650 nM | 9.23 µM | 2460 nM | 9.16 µM | 3.06 µM | > 100 µM | 3880 nM | > 100 µM | 7710 nM | > 100 µM | 2.92 µM | > 100 µM | 3.95 µM | > 100 µM | 3240 nM | > 100 µM
6 | CCN(CC)CCCNc1[nH]ncc2c(C)c3nc4ccccc4c3cc12 | 926 nM | 4.85 µM and 4.58 µM | 490 nM | 1.75 µM and 3.23 µM | 373 nM | 1.81 µM and 6.09 µM | 449 nM | 2.13 µM and 6.38 µM | 0.493 µM and 1.09 µM | 3.16 µM and 7.67 µM | 428 nM | 1.71 µM and 3.57 µM | 1160 nM | 2.44 µM and 6.41 µM | 0.397 µM | 1.75 µM and 2.42 µM | 0.566 µM | 2.5 µM and 2.09 µM | 918 nM | 2.34 µM and 3.81 µM
7 | Oc1ccccc1C=Nc1ccccc1N=Cc1ccccc1O.[Cu+2] | 2480 nM | 8.44 µM | 3450 nM | 14.5 µM | 11800 nM | 27.7 µM | 15400 nM | 92 µM | 4.35 µM | 17.5 µM | 3400 nM | 14 µM | 4330 nM | 16.4 µM | 5.79 µM | 19 µM | 3.72 µM | 16.3 µM | 6520 nM | 21.2 µM
8 | CCOC(=O)c1nc2cc(C(F)(F)F)ccc2[n+]([O-])c1C | > 100000 nM | > 100 µM | > 100000 nM | > 100 µM | > 100000 nM | > 100 µM | > 100000 nM | > 100 µM | > 100 µM | > 100 µM | > 100000 nM | > 100 µM | > 100000 nM | > 100 µM | > 100 µM | > 100 µM | > 100 µM | > 100 µM | > 100000 nM | > 100 µM
9 | CN1CCN(c2ccc(C(=O)Nc3cccc(C#Cc4cccc5[nH]nc(N)c45)c3)cc2C(F)(F)F)CC1 | 1090 nM | 4.77 µM | 581 nM | 1.2 µM | 544 nM | 1.16 µM | 847 nM | 3.4 µM | 1.21 µM | 4.85 µM | 707 nM | 1.95 µM | 636 nM | 1.34 µM | 0.962 µM | 4.51 µM | 2.12 µM | 6.94 µM | 651 nM | 1.62 µM
10 | Cn1c2ccccc2c2nnc(NNCc3ccccn3)nc21 | 429 nM | 20.5 µM | 476 nM | 11.4 µM | 393 nM | 3.38 µM | 1440 nM | 16.7 µM | 0.294 µM | 6.5 µM | 446 nM | 14.4 µM | 246 nM | 0.738 µM | 0.451 µM | 13.9 µM | 0.324 µM | 2.63 µM | 400 nM | 4.37 µM
11 | COC(=O)/C(=C\c1c(-c2ccccc2)[nH]c2ccccc12)S(C)(=O)=O | 6290 nM | > 100 µM | 4390 nM | 18.5 µM | 3110 nM | 11.5 µM | 3460 nM | > 100 µM | 4.32 µM | 18.3 µM | 3620 nM | 18.3 µM | 3340 nM | > 100 µM | 6.23 µM | > 100 µM | 4.99 µM | 64.5 µM | 12200 nM | 44.2 µM
12 | CN(C)c1ccc(/C=N/NC(=O)c2cccc3ccccc23)c(Cl)c1 | 3290 nM | > 100 µM | 2880 nM | > 100 µM | 1730 nM | 26.1 µM | 1270 nM | > 100 µM | 9.1 µM | > 100 µM | 1100 nM | 26.2 µM | 763 nM | > 100 µM | 11.6 µM | 74.2 µM | 12.3 µM | > 100 µM | 1290 nM | 69.2 µM
